Measurements reported in PMC10364322, “Evaluation of chronic drug-induced electrophysiological and cytotoxic effects using human-induced pluripotent stem cell-derived cardiomyocytes (hiPSC-CMs)” (Frontiers in Pharmacology, 2023).
Read-outs that look alike come from different tables or passages of the source.

Tested on: hiPSC-CMs (iCell-Cardiomyocytes^2)
Procedure, shortened: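 Monolayers of hiPSC-CMs on fibronectin-coated MEA plates, 50 K/well, kept at 37°C, 5% CO2; compounds added in 0.1% final DMSO after 5-min baseline. Field potential and impedance parameters expressed as mean ± SD percent change from baseline; arrhythmic events noted; cytotoxicity fluorescence normalized to DMSO, Kruskal-Wallis.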

SMILES: COc1nc(N)nc2c1ncn2[C@@H]1O[C@H](COP(=O)(N[C@@H](C)C(=O)OCC(C)(C)C)Oc2cccc3ccccc23)[C@@H](O)[C@@]1(C)O (stereo partly drawn) [BMS-986094]
- BR (beating rate), % change from baseline (0.3 µM, 2h): 5±3%
- Beating below threshold, number of observations/total well numbers (0.3 µM, 2h): 0/5
- Cessation of beating, number of observations/total well numbers (0.3 µM, 2h): 0/5
- EAD, number of observations/total well numbers (0.3 µM, 2h): 0/5
- FPD (field-potential duration), % change from baseline (0.3 µM, 2h): 0.5±1%
- FPDc (field-potential duration corrected by beat-rate), % change from baseline (0.3 µM, 2h): 2.1±1.1%
- Flat T-wave-like, number of observations/total well numbers (0.3 µM, 2h): 0/5
- BR (beating rate), % change from baseline (0.3 µM, 24h): 8±3%
- Beating below threshold, number of observations/total well numbers (0.3 µM, 24h): 0/5
- Cessation of beating, number of observations/total well numbers (0.3 µM, 24h): 0/5
- EAD, number of observations/total well numbers (0.3 µM, 24h): 0/5
- FPD (field-potential duration), % change from baseline (0.3 µM, 24h): -5.3±4.1%
- FPDc (field-potential duration corrected by beat-rate), % change from baseline (0.3 µM, 24h): -2.7±3.8%
- Flat T-wave-like, number of observations/total well numbers (0.3 µM, 24h): 0/5
- BR (beating rate), % change from baseline (0.3 µM, 48h): 14±5%
- Beating below threshold, number of observations/total well numbers (0.3 µM, 48h): 0/5
- Cessation of beating, number of observations/total well numbers (0.3 µM, 48h): 0/5
- EAD, number of observations/total well numbers (0.3 µM, 48h): 0/5
- FPD (field-potential duration), % change from baseline (0.3 µM, 48h): -12.4±4.7%
- FPDc (field-potential duration corrected by beat-rate), % change from baseline (0.3 µM, 48h): -8.4±4.1%
- Flat T-wave-like, number of observations/total well numbers (0.3 µM, 48h): 0/5
- BR (beating rate), % change from baseline (0.3 µM, 72h): 22±3 %
- Beating below threshold, number of observations/total well numbers (0.3 µM, 72h): 0/5
- Cessation of beating, number of observations/total well numbers (0.3 µM, 72h): 0/5
- EAD, number of observations/total well numbers (0.3 µM, 72h): 0/5
- FPD (field-potential duration), % change from baseline (0.3 µM, 72h): -17.3±3.6 %
- FPDc (field-potential duration corrected by beat-rate), % change from baseline (0.3 µM, 72h): -11.6±3.5 %
- Flat T-wave-like, number of observations/total well numbers (0.3 µM, 72h): 0/5
- BR (beating rate), % change from baseline (0.3 µM, 96h): 30±11 %
- Beating below threshold, number of observations/total well numbers (0.3 µM, 96h): 0/5
- Cessation of beating, number of observations/total well numbers (0.3 µM, 96h): 0/5
- EAD, number of observations/total well numbers (0.3 µM, 96h): 0/5
- FPD (field-potential duration), % change from baseline (0.3 µM, 96h): -20.4±2.9 %
- FPDc (field-potential duration corrected by beat-rate), % change from baseline (0.3 µM, 96h): -14.3±1.9 %
- Flat T-wave-like, number of observations/total well numbers (0.3 µM, 96h): 1/5
- BR (beating rate), % change from baseline (1 µM, 2h): 6±2%
- Beating below threshold, number of observations/total well numbers (1 µM, 2h): 0/5
- Cessation of beating, number of observations/total well numbers (1 µM, 2h): 0/5
- EAD, number of observations/total well numbers (1 µM, 2h): 0/5
- FPD (field-potential duration), % change from baseline (1 µM, 2h): -3.6±2.3%
- FPDc (field-potential duration corrected by beat-rate), % change from baseline (1 µM, 2h): -1.8±2.1%
- Flat T-wave-like, number of observations/total well numbers (1 µM, 2h): 1/5
- BR (beating rate), % change from baseline (1 µM, 24h): 17±5%
- Beating below threshold, number of observations/total well numbers (1 µM, 24h): 0/5
- Cessation of beating, number of observations/total well numbers (1 µM, 24h): 0/5
- EAD, number of observations/total well numbers (1 µM, 24h): 0/5
- FPD (field-potential duration), % change from baseline (1 µM, 24h): -10.7±2.3 %
- FPDc (field-potential duration corrected by beat-rate), % change from baseline (1 µM, 24h): -6±2.7%
- Flat T-wave-like, number of observations/total well numbers (1 µM, 24h): 0/5
- BR (beating rate), % change from baseline (1 µM, 48h): 12±3%
- Beating below threshold, number of observations/total well numbers (1 µM, 48h): 0/5
- Cessation of beating, number of observations/total well numbers (1 µM, 48h): 0/5
- EAD, number of observations/total well numbers (1 µM, 48h): 0/5
- FPD (field-potential duration), % change from baseline (1 µM, 48h): -5.8±3 %
- FPDc (field-potential duration corrected by beat-rate), % change from baseline (1 µM, 48h): -2.5±2.1 %
- Flat T-wave-like, number of observations/total well numbers (1 µM, 48h): 3/5
- BR (beating rate), % change from baseline (1 µM, 72h): 17±6 %
- Beating below threshold, number of observations/total well numbers (1 µM, 72h): 0/5
- Cessation of beating, number of observations/total well numbers (1 µM, 72h): 0/5
- EAD, number of observations/total well numbers (1 µM, 72h): 0/5
- FPD (field-potential duration), % change from baseline (1 µM, 72h): -7.5±0 %
- FPDc (field-potential duration corrected by beat-rate), % change from baseline (1 µM, 72h): -2.3±0%
- Flat T-wave-like, number of observations/total well numbers (1 µM, 72h): 4/5
- BR (beating rate), % change from baseline (1 µM, 96h): 14±8 %
- Beating below threshold, number of observations/total well numbers (1 µM, 96h): 0/5
- Cessation of beating, number of observations/total well numbers (1 µM, 96h): 0/5
